Laboratory results published in patent US9694073B2, “Small molecule inhibitors of polynucleotide kinase/phosphatase, poly(ADP-ribose) polymerase and uses thereof” (THE GOVERNORS OF THE UNIVERSITY OF ALBERTA, priority 2009, dated 2017).

Tests used:
[1] = biological target: T1, hPNKP 3'-phosphatase activity (Homo sapiens, UniProt Q96T60); assay: Conventional radio-gel assay for hPNKP 3'-phosphatase activity; format: biochemical
T1 construct: made in house; host or cells: bacteria (said only for the batch compared with aprataxin)

[2] = biological target: T2, Schizosaccharomyces pombe PNKP (Schizosaccharomyces pombe, UniProt O13911); assay: PiColorLock 3'-phosphatase assay, fission yeast PNKP; format: biochemical; settings: read-out: inhibition of S. pombe PNKP
T2 construct: made in house
T2 sequence (O13911 1-408): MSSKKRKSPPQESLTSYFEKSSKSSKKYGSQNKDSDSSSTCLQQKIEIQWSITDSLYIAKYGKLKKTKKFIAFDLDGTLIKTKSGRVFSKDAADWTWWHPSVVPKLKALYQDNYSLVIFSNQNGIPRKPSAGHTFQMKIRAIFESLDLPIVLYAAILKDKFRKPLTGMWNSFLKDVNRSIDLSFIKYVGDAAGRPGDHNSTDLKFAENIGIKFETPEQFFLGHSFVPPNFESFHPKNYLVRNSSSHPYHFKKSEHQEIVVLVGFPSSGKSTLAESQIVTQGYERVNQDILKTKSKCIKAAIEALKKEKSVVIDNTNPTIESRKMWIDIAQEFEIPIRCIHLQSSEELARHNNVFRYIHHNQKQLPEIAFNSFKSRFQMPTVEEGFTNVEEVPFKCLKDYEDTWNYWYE
Description: To determine the specificity of A12B4C3 for human PNKP phosphatase activity, a number of closely related phosphatases such as the PNKP enzymes isolated from bacteriophage T4, Schizosaccharomyces pombe and mouse, as well as aprataxin, were examined.

[3] = test system: A549δPNKP cells (PNKP-depleted); assay: Radiosensitization, clonogenic assay; format: cell-based, human; settings: 1 μM
Description: (§1) The effect of hPNKP inhibition by A12B4C3 on cellular survival following exposure to ionizing radiation was measured in A549, A549δPNKP and MDA-MB-231 and MDA-MB-231δPNKP cells by clonogenic assays. Cells were seeded on 60-mm tissue culture plates at various concentrations to give between about 100-1000 colonies per plate and returned to the incubator overnight to allow the cells to attach. For radiosensitization studies, the cells were incubated with or without 1 μM A12B4C3 for 2 hours before irradiation and then exposed to increasing doses of γ-radiation (^60Co Gammacell; Atomic Energy of Canada Limited, Ottawa). After irradiation, cells were incubated for a further 24 hours in the same media and then washed twice with phosphate-buffered saline (PBS) and incubated in fresh media without the inhibitor. Colonies were stained with crystal violet after 10 to 14 days and counted with an automated Colcount colony counter (Oxford Optronix, Oxford, UK).
(§2) The capacity of A12B4C3 to act as a radiosensitizer was then examined. A549 cells were incubated with 1 μM A12B4C3 for 2 hours prior to irradiation and then maintained in the presence of the compound for a further 24 hours. […] This radiation response was nearly identical to that seen with cells depleted of PNKP by stable expression of shRNA (A549δPNKP).

A549 cells = assay: Radiosensitization, clonogenic assay; format: cell-based, human; settings: 1 μM, 2 hours before irradiation and 24 hours after
Description: as §1, §2

CCCCCCCCCCC(O)C1C=CC2C(=O)N(c3ccccc3)C(=O)C2N1Nc1ccc([N+](=O)[O-])cc1 (stereo not shown) [Compound A12B4C3, 2-(1-hydroxyundecyl)-1-(4-nitrophenylamino)-6-phenyl-6,7a-dihydro-1H-pyrrolo[3,4-b]pyridine-5,7(2H,4aH)-dione]
inhibition of hPNKP phosphatase activity, radio-gel assay [1]: inhibited | inhibition at 50 µM [2]: ~20% | radiosensitization (γ-radiation survival curves) [3]: failed to sensitize | radiosensitization (γ-radiation survival curves) (A549 cells): almost doubled the radiosensitivity
